{"source": "patent US6602896B1", "about": "“p38MAPK inhibitor and uses thereof” (The Board of Trustees of the University of Arkansas, priority 1999, dated 2003)", "key": {"LDL receptor expression [1]": {"test_system": "LDL receptor expression", "experiment": "Northern blotting of LDL receptor mRNA in HepG2 cells", "assay_type": "cell-based, human", "settings": "HepG2 cells; for effect on SB202190-induced LDL receptor expression: inhibitor added 30 min before SB202190 (2.5 μM, 4 h); for induction of LDL receptor expression (Northern blotting): inhibitor alone, 0.5% FBS", "experimental": "5×10^5 cells were plated on day 0. On day 2, cells were refed with fresh medium. On day. 4, cells were either left untreated (0) or treated for the indicated times with SB202190 (2.5 μM) in medium containing 0.5% FBS. Total RNA was isolated and subjected to Northern blotting to determine amounts of LDL receptor, squalene synthase (SS) genes, and actin mRNAs. Autoradiographs were quantitated densitometrically. LDL receptor mRNA levels were normalized to actin mRNA levels. In the bottom panel, results are expressed as the fold induction by SB 202190 as compared with uninduced cells (set at 1). Values obtained are the averages of three separate experiments, with the standard deviations shown.\nHepG2 cells were grown as described in FIG. 1. On day 4, medium was changed to either 10% LPDS alone or 10% LPDS supplemented with 25-hydroxycholesterol (2 μg/ml) and cholesterol (10 μg/ml), and after 2 hours, cells were treated with indicated concentrations of SB202190 for an additional 4 hours. Levels of LDL receptor and SS mRNAs were determined by Northern analysis and densitometry as described previously. RNA levels were normalized by comparison with levels of actin. Values obtained from cells cultured in the absence of sterols and SB202190 were set at 1. Values shown are the average of two different experiments.\nTotal RNA was subjected to Northern blot analysis, and the filter was hybridized with a ^32P-labeled LDL receptor probe. Values shown are the averages of two different experiments. […] Values obtained from the control cells grown in the absence of SB202190 or PD98059 were arbitrarily set at 1.\nHepG2 cells were grown as described in FIG. 1. On day 4, cells cultured for 1 h in 0.5% FBS containing different amounts of cycloheximide (1 μg/ml, 2 μg/ml, and 5 μg/ml) were then incubated with SB202190 (2.5 μM) for an additional 4 h. LDL receptor and actin mRNA levels were analyzed by Northern blotting of total RNA. Values obtained from cells with no additions were arbitrarily set at 1. […] Results shown are representative of one experiment.\nIn FIG. 8A, HepG2 cells were pretreated for 30 minutes with the indicated concentration of the above inhibitors and then treated with […] SB202190 for an additional 4 hours. Total RNA was subjected to Northern blotting for measurement of LDL receptor mRNA levels.\n(§1) Human hepatoma cell line HepG2 and its derivative HepG2-ΔRaf-1:ER cell line that stably expresses the ΔRaf-1:ER chimera were maintained as monolayer cultures in a humidified 5% CO2 atmosphere at 37° C. in Eagle's minimum essential medium (EMEM) (Bio Whittaker, Md.) supplemented with 10% fetal bovine serum (FBS) (Life Technologies Inc.), 2 mM L-glutamine, 20 units/ml penicillin and 20 μg/ml streptomycin sulphate.\nTotal RNA was isolated using TRIzol, and Northern blotting was done essentially as described earlier (43, 44). Briefly, 20 μg total cellular RNA was fractionated on 1% formaldehyde agarose gel and transferred to Zeta Probe membrane by capillary blotting. RNA blots were hybridized with LDL receptor and squalene synthase specific single-stranded M13 probes labeled with [α-^32P ]dCTP. Hybridized filters were washed and exposed to Kodak X-ray film. The relative intensities of specific bands were determined densitometrically within the linear range of the film on a model 300A laser densitometer (Molecular Dyanamics, Calif.) with Image Quant software. LDL receptor mRNA was normalized to squalene synthase (SS) (included in this study) or to α-actin (data not shown) mRNA level, and data for each point were plotted as the percentage of LDL receptor mRNA as compared to controls. […]"}, "p38^MAPK [2]": {"test_system": "p38^MAPK", "experiment": "p38MAPK activation by stress-inducers in HepG2-ΔRaf-1:ER cells", "assay_type": "cell-based, human", "settings": "1 μM ICI 182,780 1.5 h, then anisomycin (50 ng/ml) or IL-1β (5 ng/ml) 30 min", "experimental": "(§2) Cells were either left untreated or stimulated with 1 μM ICI 182,780 for 1.5 h, and then treated with either anisomycin (50 ng/ml) or IL-1β(5 ng/ml) for 30 min. Cells were then lysed in SDS sample buffer, and equal amounts of whole cell lysates were separated by SDS-PAGE in 10% gels. Activated MAPKs levels were analyzed by blotting using anti-phospho-p42/44^MAPK, and anti-phospho-p38^MAPK. Protein levels were analyzed by using phosphorylation-independent anti-p42/44^MAPK following electrotransfer of total proteins onto nitrocellulose. Similar results were obtained in three separate experiments. […]\n(§3) Proteins were fractionated by SDS-PAGE with an 10% acrylamide separation gel, and the separated proteins were transferred to nitrocellulose, and processed as described previously (43, 44). […] After further washing in Tris/NaCl/Tween-20, membranes were incubated for 1 h with horseradish peroxidase-linked anti-IgG secondary antibody (Bio-Rad, diluted 1:5000), and immunoreactive proteins were detected by ECL as described by the supplier. Quantitative analyses of protein levels were performed by densitometric scanning of the autoradiograms, and are representative of 3 or more independent experiments.\n(§4) Whether inhibition or activation of p42/44^MAPK regulates p38^MAPK activation by stress-inducers was determined next. […]"}, "p42/44^MAPK [3]": {"test_system": "p42/44^MAPK", "experiment": "p42/44MAPK activation in HepG2-ΔRaf-1:ER cells", "assay_type": "cell-based, human", "settings": "1 μM ICI 182,780", "experimental": "as §2, §3, §4"}, "other MAPKs": {"test_system": "other MAPKs", "experiment": "Activity of other MAPKs on inhibition of p42/44MAPK", "assay_type": "cell-based", "settings": "inhibition of p42/44MAPK with PD98059; data not shown"}, "p42/44^MAPK [4]": {"test_system": "p42/44^MAPK", "experiment": "Immunoblot of phospho-p42/44MAPK in HepG2 cells", "assay_type": "cell-based, human", "settings": "inhibitor added 30 min before SB202190 (2.5 μM, 4 h)", "experimental": "(§5) 2×10^5 cells were grown and treated as described in FIG. 1. After the indicated times, equal amounts of cell lysates were blotted with anti-phospho-p42/44^MAPK antibody, phosphorylation-independent p42/44^MAPK antibody, anti-phospho p46/54^JNK antibody, anti-phospho-MEK-1/2, or phosphorylation-independent MKP-1.\nHepG2 cells were cultured in the absence or presence of 1 μM staurosporine or 5 μM PD98059 for 30 min. SB202190 (2.5 μM) was then added to the cells for 4 h, cell lysate was subjected to immunoblotting to measure the phosphorylation levels of p42/44^MAPK and MEK-1/2.\nas §1\nProteins were fractionated by SDS-PAGE with an 10% acrylamide separation gel, and the separated proteins were transferred to nitrocellulose, and processed as described previously (43, 44). Briefly, membranes were incubated in 20 mM Tris-HCl, pH 7.6, 137 mM NaCl, 0.2% v/v Tween-20 (Tris/NaCl/Tween-20) with 5% w/v non-fat dried milk for 1 h, washed in Tris/NaCl/Tween-20 (3×5 min), and incubated for 1 h with primary antibody in Tris/NaCl/Tween-20 containing 1% milk at room temperature for non phospho-specific antibodies and overnight at 4° C. for phospho-specific antibodies. The following dilutions were used for individual antibodies against different proteins: p42/44^MAPK (1:1600); phosphop-42/44^MAPK (1:1000); phosphop-46/54^JNK (1:1000); phospho-p38^MAPK (1:1600); phospho-MEK-1/2 (1:1000); MKP-1 (1:1500). After further washing in Tris/NaCl/Tween-20, membranes were incubated for 1 h with horseradish peroxidase-linked anti-IgG secondary antibody (Bio-Rad, diluted 1:5000), and immunoreactive proteins were detected by ECL as described by the supplier. Quantitative analyses of protein levels were performed by densitometric scanning of the autoradiograms, and are representative of 3 or more independent experiments.\nHepG2 cells were incubated with SB202190, and the activity of p42/44^MAPK and p46/54^JNK was determined by immunoblot analysis with antibodies that recognized the activated phosphorylated forms of these kinases in cell extracts obtained at different times."}, "LDL receptor expression [5]": {"test_system": "LDL receptor expression", "experiment": "Northern blotting of LDL receptor mRNA in HeLa cells", "assay_type": "cell-based", "settings": "PD98059 (5 μM) added 30 min before SB202190 (2.5 μM) 4 h", "experimental": "PD98059 was added 30 min prior to addition of SB202190. After the indicated times, total RNA was isolated and subjected to Northern blotting. […] Total RNA was isolated using TRIzol, and Northern blotting was done essentially as described earlier (43, 44). Briefly, 20 μg total cellular RNA was fractionated on 1% formaldehyde agarose gel and transferred to Zeta Probe membrane by capillary blotting. RNA blots were hybridized with LDL receptor and squalene synthase specific single-stranded M13 probes labeled with [α-^32P ]dCTP. Hybridized filters were washed and exposed to Kodak X-ray film. The relative intensities of specific bands were determined densitometrically within the linear range of the film on a model 300A laser densitometer (Molecular […], Calif.) with Image Quant software. LDL receptor mRNA was normalized to squalene synthase (SS) (included in this study) or to α-actin (data not shown) mRNA level, and data for each point were plotted as the percentage of LDL receptor mRNA as compared to controls."}, "p38^MAPK [6]": {"test_system": "p38^MAPK", "settings": "concentrations that completely blocked p42/44MAPK activation by MEK-1/2; cited from earlier work"}, "[7]": {"test_system": "p38^MAPK α- and β-isoforms", "settings": "cited from earlier work"}, "MEK-1/2": {"test_system": "MEK-1/2", "experiment": "Immunoblot of phospho-MEK-1/2 in HepG2 cells", "assay_type": "cell-based, human", "settings": "1 μM staurosporine 30 min, then SB202190 (2.5 μM) 4 h", "experimental": "as §5\nHepG2 cells were cultured in the absence or presence of 1 μM staurosporine or 5 μM PD98059 for 30 min. SB202190 (2.5 μM) was then added to the cells for 4 h, cell lysate was subjected to immunoblotting to measure the phosphorylation levels of p42/44^MAPK and MEK-1/2. […]\nas §3"}}}
{"compound": "CN(C)CCCn1cc(C2=C(c3c[nH]c4ccccc34)C(=O)NC2=O)c2ccccc21", "note": "[Bis I]", "values": [{"measurement": "effect on SB202190-induced LDL receptor expression", "setting": "LDL receptor expression [1]", "value": "has no effect"}]}
{"compound": "Cn1c2ccccc2c2c3c(c4c5ccccc5n(CCC#N)c4c21)CNC3=O", "note": "[Go6976]", "values": [{"measurement": "effect on SB202190-induced LDL receptor expression", "setting": "LDL receptor expression [1]", "value": "has no effect"}]}
{"compound": "C[C@]12CC[C@@H]3c4ccc(O)cc4C[C@@H](CCCCCCCCC[S+]([O-])CCCC(F)(F)C(F)(F)F)[C@H]3[C@@H]1CC[C@@H]2O", "note": "(stereo partly shown) [ICI 182780]", "values": [{"measurement": "effect on p38MAPK activation by anisomycin or IL-1β", "setting": "p38^MAPK [2]", "value": "no significant effects"}, {"measurement": "stimulation of p42/44MAPK", "setting": "p42/44^MAPK [3]", "value": "stimulated p42/44^MAPK within minutes"}]}
{"compound": "COc1cccc(-c2cc(=O)c3ccccc3o2)c1N", "note": "[PD98059, 2-(2′-amino-3′-methoxyphenyl) oxanaphthalen-4-one]", "values": [{"measurement": "effect on SB202190-induced LDL receptor expression", "setting": "LDL receptor expression [1]", "value": "inhibited"}, {"measurement": "effect on activity of other MAPKs", "setting": "other MAPKs", "value": "has no effect on activity of other MAPKs"}, {"measurement": "effect on SB202190-induced p42/44MAPK phosphorylation/activation", "setting": "p42/44^MAPK [4]", "value": "inhibited"}, {"measurement": "effect on SB202190-induced LDL receptor expression in HeLa cells", "setting": "LDL receptor expression [5]", "value": "blocked SB202190-induced LDL receptor expression"}, {"measurement": "effect on p38MAPK activation in response to IL-1β or TNF", "setting": "p38^MAPK [6]", "value": "failed to block p38^MAPK activation"}]}
{"compound": "CCc1nc(-c2ccc(OC)cc2)[nH]c1-c1ccncc1", "note": "[SB202474]", "values": [{"measurement": "induction of LDL receptor expression (Northern blotting)", "setting": "LDL receptor expression [1]", "value": "did not induce LDL receptor expression"}]}
{"compound": "C[S+]([O-])c1ccc(-c2nc(-c3ccc(F)cc3)c(-c3ccncc3)[nH]2)cc1", "note": "(stereo not shown) [SB203580, 4-(4-Fluorophenyl)-2-(4-methylsulfinylphenyl)-5-(4-pyridyl) 1H-imidazole]", "values": [{"measurement": "most effective concentration for LDL receptor induction", "setting": "LDL receptor expression [1]", "value": 10, "unit": "µM"}, {"measurement": "induction of LDL receptor expression (Northern blotting)", "setting": "LDL receptor expression [1]", "value": "also induced LDL receptor expression"}, {"measurement": "inhibition of p38MAPK α- and β-isoforms", "setting": "[7]", "value": "selectively inhibit both p38^MAPK α- and β-isoforms"}]}
{"compound": "C[C@@H]1C[C@@H]([C@H](O)CC2CC(=O)NC(=O)C2)C(=O)[C@@H](C)C1", "note": "[cycloheximide]", "values": [{"measurement": "effect of inhibition of translation on SB202190-induced LDL receptor expression", "setting": "LDL receptor expression [1]; cycloheximide 1, 2, 5 μg/ml for 1 h, then SB202190 (2.5 μM) 4 h", "value": "no effect on LDL receptor expression"}]}
{"compound": "COc1ccc2c(c1)c(CC(=O)O)c(C)n2C(=O)c1ccc(Cl)cc1", "note": "[indomethacin]", "values": [{"measurement": "effect on LDL receptor expression", "setting": "LDL receptor expression [1]; 10 μM indomethacin", "value": "did not significantly alter LDL receptor expression"}]}
{"compound": "CN[C@@H]1C[C@H]2O[C@@](C)([C@@H]1OC)n1c3ccccc3c3c4c(c5c6ccccc6n2c5c31)C(=O)NC4", "note": "[staurosporine]", "values": [{"measurement": "effect on SB202190-induced MEK-1/2 activation", "setting": "MEK-1/2", "value": "blocked"}, {"measurement": "effect on SB202190-induced LDL receptor expression", "setting": "LDL receptor expression [1]", "value": "completely prevented"}, {"measurement": "effect on SB202190-induced p42/44MAPK phosphorylation/activation", "setting": "p42/44^MAPK [4]", "value": "blocked"}]}
{"compound": "calphostin C", "values": [{"measurement": "effect on SB202190-induced LDL receptor expression", "setting": "LDL receptor expression [1]", "value": "has no effect"}]}
